Measured values published in patent publication US8192962B2, “Processes for detecting toxic substances” (Daikin Industries, Ltd., priority 2001, dated 2012).

System: DNA repair protein genes
Test: DNA chip mRNA expression in yeast, DNA repair protein genes (Table 3)
Assay type: cell-based, Saccharomyces cerevisiae S288C
Details: incubated two hours, concentrations as in the 1st table
Method in brief: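 Chemical exposure: 2 h, log-phase S. cerevisiae S288C, YPD, 25° C., dose set to inhibit growth without death. Profiling: mRNA labeled by reverse transcription with Cy3- or Cy5-dUTP, hybridized to whole-genome array. Output: fluorescence ratio against untreated culture.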

[Cl][Pb][Cl] [(4), PbCl2]
The level of expressed mRNA in the presence of chemical substance/The level of expressed mRNA in the absence of chemical substance (yeast gene YAL015C): 1.9
The level of expressed mRNA in the presence of chemical substance/The level of expressed mRNA in the absence of chemical substance (yeast gene YAR007C): 0.5
The level of expressed mRNA in the presence of chemical substance/The level of expressed mRNA in the absence of chemical substance (yeast gene YBL019W): 1.2
The level of expressed mRNA in the presence of chemical substance/The level of expressed mRNA in the absence of chemical substance (yeast gene YBR073W): 0.7
The level of expressed mRNA in the presence of chemical substance/The level of expressed mRNA in the absence of chemical substance (yeast gene YBR272C): 1.0
The level of expressed mRNA in the presence of chemical substance/The level of expressed mRNA in the absence of chemical substance (yeast gene YCR014C): 0.6
The level of expressed mRNA in the presence of chemical substance/The level of expressed mRNA in the absence of chemical substance (yeast gene YDL017W): 1.3
The level of expressed mRNA in the presence of chemical substance/The level of expressed mRNA in the absence of chemical substance (yeast gene YDL059C): 1.7
The level of expressed mRNA in the presence of chemical substance/The level of expressed mRNA in the absence of chemical substance (yeast gene YDL200C): 1.8
The level of expressed mRNA in the presence of chemical substance/The level of expressed mRNA in the absence of chemical substance (yeast gene YDR054C): 1.4
The level of expressed mRNA in the presence of chemical substance/The level of expressed mRNA in the absence of chemical substance (yeast gene YDR369C): 1.1
The level of expressed mRNA in the presence of chemical substance/The level of expressed mRNA in the absence of chemical substance (yeast gene YEL019C): 0.7
The level of expressed mRNA in the presence of chemical substance/The level of expressed mRNA in the absence of chemical substance (yeast gene YEL037C): 1.0
The level of expressed mRNA in the presence of chemical substance/The level of expressed mRNA in the absence of chemical substance (yeast gene YER162C): 1.1
The level of expressed mRNA in the presence of chemical substance/The level of expressed mRNA in the absence of chemical substance (yeast gene YFL014W): 11.0
The level of expressed mRNA in the presence of chemical substance/The level of expressed mRNA in the absence of chemical substance (yeast gene YGL058W): 0.7
The level of expressed mRNA in the presence of chemical substance/The level of expressed mRNA in the absence of chemical substance (yeast gene YGL091C): 1.7
The level of expressed mRNA in the presence of chemical substance/The level of expressed mRNA in the absence of chemical substance (yeast gene YGL127C): 1.7
The level of expressed mRNA in the presence of chemical substance/The level of expressed mRNA in the absence of chemical substance (yeast gene YGL163C): 4.3
The level of expressed mRNA in the presence of chemical substance/The level of expressed mRNA in the absence of chemical substance (yeast gene YGL249W): 0.8
The level of expressed mRNA in the presence of chemical substance/The level of expressed mRNA in the absence of chemical substance (yeast gene YGR180C): 1.0
The level of expressed mRNA in the presence of chemical substance/The level of expressed mRNA in the absence of chemical substance (yeast gene YGR231C): 1.0
The level of expressed mRNA in the presence of chemical substance/The level of expressed mRNA in the absence of chemical substance (yeast gene YGR258C): 0.7
The level of expressed mRNA in the presence of chemical substance/The level of expressed mRNA in the absence of chemical substance (yeast gene YHR164C): 0.7
The level of expressed mRNA in the presence of chemical substance/The level of expressed mRNA in the absence of chemical substance (yeast gene YIL036W): 1.8
The level of expressed mRNA in the presence of chemical substance/The level of expressed mRNA in the absence of chemical substance (yeast gene YIL072W): 2.6
The level of expressed mRNA in the presence of chemical substance/The level of expressed mRNA in the absence of chemical substance (yeast gene YIL143C): 0.9
The level of expressed mRNA in the presence of chemical substance/The level of expressed mRNA in the absence of chemical substance (yeast gene YIL153W): 2.9
The level of expressed mRNA in the presence of chemical substance/The level of expressed mRNA in the absence of chemical substance (yeast gene YIR002C): 0.6
The level of expressed mRNA in the presence of chemical substance/The level of expressed mRNA in the absence of chemical substance (yeast gene YJL026W): 1.0
The level of expressed mRNA in the presence of chemical substance/The level of expressed mRNA in the absence of chemical substance (yeast gene YJR046W): 1.5
The level of expressed mRNA in the presence of chemical substance/The level of expressed mRNA in the absence of chemical substance (yeast gene YJR052W): 1.0
The level of expressed mRNA in the presence of chemical substance/The level of expressed mRNA in the absence of chemical substance (yeast gene YKL145W): 1.0
The level of expressed mRNA in the presence of chemical substance/The level of expressed mRNA in the absence of chemical substance (yeast gene YLR103C): 0.4
The level of expressed mRNA in the presence of chemical substance/The level of expressed mRNA in the absence of chemical substance (yeast gene YLR233C): 2.0
The level of expressed mRNA in the presence of chemical substance/The level of expressed mRNA in the absence of chemical substance (yeast gene YLR288C): 1.8
The level of expressed mRNA in the presence of chemical substance/The level of expressed mRNA in the absence of chemical substance (yeast gene YML032C): 0.7
The level of expressed mRNA in the presence of chemical substance/The level of expressed mRNA in the absence of chemical substance (yeast gene YML058W): 1.9
The level of expressed mRNA in the presence of chemical substance/The level of expressed mRNA in the absence of chemical substance (yeast gene YMR035W): 1.7
The level of expressed mRNA in the presence of chemical substance/The level of expressed mRNA in the absence of chemical substance (yeast gene YMR072W): 1.0
The level of expressed mRNA in the presence of chemical substance/The level of expressed mRNA in the absence of chemical substance (yeast gene YMR096W): 0.8
The level of expressed mRNA in the presence of chemical substance/The level of expressed mRNA in the absence of chemical substance (yeast gene YMR284W): 2.0
The level of expressed mRNA in the presence of chemical substance/The level of expressed mRNA in the absence of chemical substance (yeast gene YNL213C): 1.5
The level of expressed mRNA in the presence of chemical substance/The level of expressed mRNA in the absence of chemical substance (yeast gene YNL250W): 1.2
The level of expressed mRNA in the presence of chemical substance/The level of expressed mRNA in the absence of chemical substance (yeast gene YNL261W): 1.3
The level of expressed mRNA in the presence of chemical substance/The level of expressed mRNA in the absence of chemical substance (yeast gene YNL312W): 0.7
The level of expressed mRNA in the presence of chemical substance/The level of expressed mRNA in the absence of chemical substance (yeast gene YOL043C): 1.7
The level of expressed mRNA in the presence of chemical substance/The level of expressed mRNA in the absence of chemical substance (yeast gene YOR005C): 0.8
The level of expressed mRNA in the presence of chemical substance/The level of expressed mRNA in the absence of chemical substance (yeast gene YOR386W): 1.5
The level of expressed mRNA in the presence of chemical substance/The level of expressed mRNA in the absence of chemical substance (yeast gene YPL022W): 1.2
The level of expressed mRNA in the presence of chemical substance/The level of expressed mRNA in the absence of chemical substance (yeast gene YPL164C): 1.0
The level of expressed mRNA in the presence of chemical substance/The level of expressed mRNA in the absence of chemical substance (yeast gene YPL194W): 1.1
The level of expressed mRNA in the presence of chemical substance/The level of expressed mRNA in the absence of chemical substance (yeast gene YPR025C): 0.6
